These results are taken from ChEMBL document CHEMBL5335794, “Discovery of novel multifunctional ligands targeting GABA transporters, butyrylcholinesterase, β-secretase, and amyloid β aggregation as potential treatment of Alzheimer's disease” (Eur J Med Chem, 2023).

Test [1] addresses T1, GABA transporter 4 (Mus musculus, UniProt P31650).
T1 sequence (P31650 whole entry): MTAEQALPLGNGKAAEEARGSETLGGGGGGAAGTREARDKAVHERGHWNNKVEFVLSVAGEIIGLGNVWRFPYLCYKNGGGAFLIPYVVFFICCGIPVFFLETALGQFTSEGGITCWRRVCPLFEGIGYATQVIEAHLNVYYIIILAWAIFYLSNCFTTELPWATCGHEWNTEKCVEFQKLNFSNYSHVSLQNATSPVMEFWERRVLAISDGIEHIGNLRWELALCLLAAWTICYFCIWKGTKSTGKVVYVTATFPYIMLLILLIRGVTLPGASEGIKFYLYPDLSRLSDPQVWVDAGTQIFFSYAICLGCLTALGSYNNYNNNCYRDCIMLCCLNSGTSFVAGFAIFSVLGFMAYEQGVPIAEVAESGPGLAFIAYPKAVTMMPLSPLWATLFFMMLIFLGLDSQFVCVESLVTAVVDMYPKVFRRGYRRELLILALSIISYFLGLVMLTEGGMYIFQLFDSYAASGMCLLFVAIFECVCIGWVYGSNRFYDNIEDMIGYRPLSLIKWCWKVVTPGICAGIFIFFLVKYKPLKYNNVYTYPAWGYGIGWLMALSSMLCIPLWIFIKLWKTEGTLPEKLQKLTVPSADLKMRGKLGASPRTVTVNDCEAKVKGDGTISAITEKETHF

For test [2], the target named is T2, Sodium- and chloride-dependent GABA transporter 1 (Mus musculus, UniProt P31648).
Test [3] concerns the target T3, GABA transporter 2 (Mus musculus, UniProt P31651).
T3 sequence (P31651 whole entry): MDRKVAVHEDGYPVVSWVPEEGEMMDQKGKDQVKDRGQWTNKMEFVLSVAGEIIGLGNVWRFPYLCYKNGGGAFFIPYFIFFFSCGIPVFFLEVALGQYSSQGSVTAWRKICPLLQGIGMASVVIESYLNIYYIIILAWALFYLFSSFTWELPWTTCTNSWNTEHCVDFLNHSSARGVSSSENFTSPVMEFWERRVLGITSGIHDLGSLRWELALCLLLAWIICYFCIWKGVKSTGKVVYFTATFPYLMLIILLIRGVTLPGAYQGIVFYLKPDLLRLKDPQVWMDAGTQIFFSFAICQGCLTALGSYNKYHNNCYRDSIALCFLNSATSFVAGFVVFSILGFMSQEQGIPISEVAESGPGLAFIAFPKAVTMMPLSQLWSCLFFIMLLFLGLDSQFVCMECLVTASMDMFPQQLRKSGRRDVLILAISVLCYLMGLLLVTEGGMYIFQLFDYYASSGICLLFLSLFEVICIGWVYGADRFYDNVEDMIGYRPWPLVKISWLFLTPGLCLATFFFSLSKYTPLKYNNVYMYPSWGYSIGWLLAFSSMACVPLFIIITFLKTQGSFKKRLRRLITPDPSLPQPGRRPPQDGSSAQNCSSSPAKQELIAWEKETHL

Test [4] has as its target T4, GABA transporter 2 (Mus musculus) (UniProt P31651).
T4 sequence (whole entry): T3 sequence (P31651 whole entry)
The experiment in a line: Inhibition of mouse GAT2 transfected in HEK293 cells assessed as reduction in [3H]-GABA uptake by measuring residual activity at 100 uM preincubated for 25 mins followed by [3H]-GABA addition and measured after 10 mins by liquid scintillation counting analysis relative to control. It is filed as cell-based. As to conditions: time 35.0 min.

Test [5] is described as follows: Inhibition of mouse GAT3 transfected in HEK293 cells assessed as reduction in [3H]-GABA uptake preincubated for 25 mins followed by [3H]-GABA addition and measured after 4 mins by liquid scintillation counting analysis. It is filed as cell-based. Conditions: HEK293.
Test [6] has as its target Acetylcholinesterase (Electrophorus electricus) (UniProt O42275). The experiment in a line: Inhibition of electric eel AChE using acetylthiocholine iodide as substrate at 10 uM preincubated for 5 mins followed by substrate addition and measured after 5 mins by DTNB reagent based Ellman's method relative to control. Conditions: time 10.0 min. On the technique in general: Ellman's reagent forms a yellow product with free thiols.

For test [7], the target named is Cholinesterase (Equus caballus, UniProt P81908).
Sequence of Cholinesterase (P81908 whole entry): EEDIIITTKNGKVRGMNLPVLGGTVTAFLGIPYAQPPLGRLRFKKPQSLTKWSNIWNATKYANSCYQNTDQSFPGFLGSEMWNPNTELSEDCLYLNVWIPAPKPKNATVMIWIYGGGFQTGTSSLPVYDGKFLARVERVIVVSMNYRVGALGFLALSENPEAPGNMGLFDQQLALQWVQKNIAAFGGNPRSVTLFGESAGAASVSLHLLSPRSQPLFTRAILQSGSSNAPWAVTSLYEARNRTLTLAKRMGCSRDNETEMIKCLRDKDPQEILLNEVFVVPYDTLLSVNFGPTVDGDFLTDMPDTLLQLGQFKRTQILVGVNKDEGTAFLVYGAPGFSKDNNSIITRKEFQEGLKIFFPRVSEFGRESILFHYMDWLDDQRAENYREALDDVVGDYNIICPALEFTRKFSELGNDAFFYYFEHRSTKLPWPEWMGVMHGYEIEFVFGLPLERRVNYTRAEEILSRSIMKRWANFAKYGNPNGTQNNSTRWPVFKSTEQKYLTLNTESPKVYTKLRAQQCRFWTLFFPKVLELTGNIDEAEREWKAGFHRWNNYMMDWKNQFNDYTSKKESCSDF
Description: Inhibition of equine serum BuChE using butyrylthiocholine iodide as substrate preincubated for 5 mins followed by substrate addition and measured after 5 mins by DTNB reagent based Ellman's method
Test [8] deals with T2, Sodium- and chloride-dependent GABA transporter 1. Kind of test: Inhibition of NO 711 marker binding to mouse GAT1 by LC-ESI-MS/MS based competitive MS binding assay.
Test [9] shares this target. The experiment in a line: Inhibition of mouse GAT1 transfected in HEK293 cells assessed as reduction in [3H]-GABA uptake preincubated for 25 mins followed by [3H]-GABA addition and measured after 4 mins by liquid scintillation counting analysis. It is filed as cell-based.
The target of test [10] is T1, GABA transporter 4. Kind of test: Inhibition of mouse GAT4 transfected in HEK293 cells assessed as reduction in [3H]-GABA uptake preincubated for 25 mins followed by [3H]-GABA addition and measured after 4 mins by liquid scintillation counting analysis. It is filed as cell-based.
In test [11] the target is Cholinesterase (Equus caballus) (UniProt P81908). Kind of test: Inhibition of equine serum BuChE using butyrylthiocholine iodide as substrate at 10 uM preincubated for 5 mins followed by substrate addition and measured after 5 mins by DTNB reagent based Ellman's method relative to control. Conditions: time 10.0 min.
Sequence of Cholinesterase (Equus caballus) (P81908 whole entry): as above
The target of test [12] is T5, Beta-secretase 1 (Homo sapiens, UniProt P56817). As to conditions: dose 50.0 µM, time 60.0 min.
T5 sequence (P56817 whole entry): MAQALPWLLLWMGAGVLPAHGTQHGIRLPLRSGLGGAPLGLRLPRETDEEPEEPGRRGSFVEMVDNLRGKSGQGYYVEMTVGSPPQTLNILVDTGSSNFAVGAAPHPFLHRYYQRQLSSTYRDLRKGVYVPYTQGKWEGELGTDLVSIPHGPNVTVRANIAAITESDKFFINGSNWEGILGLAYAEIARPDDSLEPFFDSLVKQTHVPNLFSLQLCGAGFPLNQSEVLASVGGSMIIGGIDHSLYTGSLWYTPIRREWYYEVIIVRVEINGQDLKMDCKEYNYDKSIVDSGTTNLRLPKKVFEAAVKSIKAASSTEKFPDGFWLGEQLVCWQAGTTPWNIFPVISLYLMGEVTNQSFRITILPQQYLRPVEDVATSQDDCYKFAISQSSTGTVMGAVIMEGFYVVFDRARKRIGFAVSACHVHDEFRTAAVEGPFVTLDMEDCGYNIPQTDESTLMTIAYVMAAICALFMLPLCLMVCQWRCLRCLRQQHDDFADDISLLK
The target of test [13] is Sodium- and chloride-dependent GABA transporter 1 (Mus musculus) (UniProt P31648). Kind of test: Inhibition of NO 711 marker binding to mouse GAT1 assessed as residual activity at 100 uM by LC-ESI-MS/MS based competitive MS binding assay relative to control.
Test [14] shares this target. Kind of test: Inhibition of mouse GAT1 transfected in HEK293 cells assessed as reduction in [3H]-GABA uptake by measuring residual activity at 100 uM preincubated for 25 mins followed by [3H]-GABA addition and measured after 4 mins by liquid scintillation counting analysis relative to control. It is filed as cell-based. Conditions: time 29.0 min.
The target in test [15] is Amyloid-beta precursor protein (Homo sapiens) (UniProt P05067). The experiment in a line: Inhibition of amyloid beta40 (unknown origin) aggregation at 10 uM measured every 5 mins by ThT fluorescence based assay relative to control.
Sequence of Amyloid-beta precursor protein (Homo sapiens) (P05067 whole entry): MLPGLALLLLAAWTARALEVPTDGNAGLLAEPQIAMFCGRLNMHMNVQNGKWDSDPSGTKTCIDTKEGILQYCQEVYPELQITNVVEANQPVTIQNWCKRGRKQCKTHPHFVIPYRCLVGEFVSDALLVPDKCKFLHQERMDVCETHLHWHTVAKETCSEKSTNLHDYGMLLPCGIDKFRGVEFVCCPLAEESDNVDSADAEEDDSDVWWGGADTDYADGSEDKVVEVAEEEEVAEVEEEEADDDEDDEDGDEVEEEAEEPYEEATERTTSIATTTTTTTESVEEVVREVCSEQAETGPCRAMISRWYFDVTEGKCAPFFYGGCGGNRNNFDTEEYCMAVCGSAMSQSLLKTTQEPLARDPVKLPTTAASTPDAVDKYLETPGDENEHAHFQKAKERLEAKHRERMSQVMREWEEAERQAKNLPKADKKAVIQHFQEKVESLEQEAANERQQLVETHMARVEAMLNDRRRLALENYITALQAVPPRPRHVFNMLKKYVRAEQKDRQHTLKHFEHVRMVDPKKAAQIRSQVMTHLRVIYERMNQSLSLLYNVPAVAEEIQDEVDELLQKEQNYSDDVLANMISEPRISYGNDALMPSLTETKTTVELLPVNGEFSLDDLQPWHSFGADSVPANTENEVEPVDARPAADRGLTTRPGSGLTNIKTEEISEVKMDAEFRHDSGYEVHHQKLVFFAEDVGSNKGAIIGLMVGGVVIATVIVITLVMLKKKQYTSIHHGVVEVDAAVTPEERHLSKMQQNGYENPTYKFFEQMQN
The target of test [16] is T3, GABA transporter 2. Kind of test: Inhibition of mouse GAT2 transfected in HEK293 cells assessed as reduction in [3H]-GABA uptake preincubated for 25 mins followed by [3H]-GABA addition and measured after 10 mins by liquid scintillation counting analysis. Format: cell-based.
Test [17] concerns the target Amyloid-beta precursor protein (Homo sapiens) (UniProt P05067). Kind of test: Inhibition of amyloid beta42 (unknown origin) aggregation expressed in Escherichia coli BL21 (DE3) at 10 uM measured every 5 mins by ThT fluorescence based assay relative to control.
For test [18], the target named is T5, Beta-secretase 1.
Test [19] has as its target T6, GABA transporter 4 (Mus musculus) (UniProt P31650).
T6 sequence (whole entry): T1 sequence (P31650 whole entry)
Kind of test: Inhibition of mouse GAT4 transfected in HEK293 cells assessed as reduction in [3H]-GABA uptake by measuring residual activity at 100 uM preincubated for 25 mins followed by [3H]-GABA addition and measured after 4 mins by liquid scintillation counting analysis relative to control. It is filed as cell-based. Conditions: time 29.0 min.

Sequence of Acetylcholinesterase (Electrophorus electricus) (O42275 24-633 limits assumed): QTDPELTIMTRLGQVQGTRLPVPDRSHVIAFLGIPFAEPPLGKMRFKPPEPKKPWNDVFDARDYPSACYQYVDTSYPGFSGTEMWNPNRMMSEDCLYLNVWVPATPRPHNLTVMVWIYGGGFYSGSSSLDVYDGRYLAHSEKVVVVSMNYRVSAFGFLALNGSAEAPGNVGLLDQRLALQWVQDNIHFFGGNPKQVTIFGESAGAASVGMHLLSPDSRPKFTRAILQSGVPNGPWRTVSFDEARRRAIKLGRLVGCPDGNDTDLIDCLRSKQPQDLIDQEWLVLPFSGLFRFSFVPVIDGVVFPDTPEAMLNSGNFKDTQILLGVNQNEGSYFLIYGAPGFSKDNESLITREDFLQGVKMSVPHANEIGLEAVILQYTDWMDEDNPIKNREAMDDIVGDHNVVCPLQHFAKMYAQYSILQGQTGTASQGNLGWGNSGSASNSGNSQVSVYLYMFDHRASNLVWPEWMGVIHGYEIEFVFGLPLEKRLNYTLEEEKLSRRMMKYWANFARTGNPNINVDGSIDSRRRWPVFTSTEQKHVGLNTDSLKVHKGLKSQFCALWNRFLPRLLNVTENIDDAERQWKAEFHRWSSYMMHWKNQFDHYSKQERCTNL

As to `CN(CCC=C(c1ccccc1)c1ccccc1)C(CO)C(=O)NCc1ccccc1Cl` (stereo not given), the IC50 was 10 µM in test [1], 19 µM in test [2] and 13 µM in test [3].

Consider `CC(CC(=O)O)NCCOCCN1c2ccccc2Sc2ccccc21` (stereo not given), for which the IC50 in test [2] came to 9 µM.

Turning to `CN(CCC=C(c1ccccc1)c1ccccc1)C(=O)C1Cc2c([nH]c3ccccc23)CN1` (stereo not given), the Activity in [4] was 55%. Further, the IC50 was 4.1 µM in [5] (read-out: IC50); 4.07 µM in test [5] (read-out: pIC50 (converted)); 3.13 µM in [7]; 12 µM in test [9] (read-out: pIC50 (converted)); 6.3 µM in [10] (read-out: IC50). The inhibition in test [6] is 38%. Also, in test [8], affinity was put at a Ki of 79.4 µM.

For the compound `CN(CC/C=C/c1ccccc1-c1ccc(Cl)cc1Cl)C(CCO)C(=O)NCc1ccccc1` (stereo not given), the Activity was found to be 13% in test [4], 49% in test [13] and 45% in [14]. Besides, the inhibition was determined as 47% in [11] and 52% in test [12]. Also, the results for the IC50 in test [5] (read-out: pIC50 (converted)) and in test [10] (read-out: pIC50 (converted)) were 7.76 µM and 7.41 µM, respectively.

`CN(CCOCCN1c2ccccc2Sc2ccccc21)C(CCN)C(=O)NCc1ccccc1Cl` (stereo not given): the inhibition was 74% in test [15], 14% in test [6] and 27.1% in test [17]. The IC50 in test [5] (read-out: pIC50 (converted)) is 6.17 µM; in [16] (read-out: pIC50 (converted)), 6.61 µM; in test [7] it was 0.411 µM; in test [9] (read-out: pIC50 (converted)), 12.6 µM; in test [10] (read-out: pIC50 (converted)), 8.71 µM; in [18], 5.17 µM. Moreover, the Ki in [8] is 57.5 µM.

For the compound `O=C(O)[C@@H]1CCCN(CCOCCN2c3ccccc3Sc3ccccc32)C1`, in test [2], the IC50 turned out to be 0.3 µM.

`Cc1ccsc1C(=CCCN(C)[C@H]1CCCC[C@H]1C(=O)O)c1sccc1C` yielded an IC50 in test [3] of 21 µM.

`CN(CCOCCN1c2ccccc2Sc2ccccc21)C(CCN)C(=O)NCc1ccc(F)cc1` (stereo not given): the inhibition is 74.7% in [15], below 10% in [6] and 23.9% in [17]. In addition, the IC50 in test [5] (read-out: pIC50 (converted)) was 8.32 µM; in [16] (read-out: pIC50 (converted)), 10.2 µM; in test [7], 1.02 µM; in test [9] (read-out: pIC50 (converted)), 14.8 µM; in test [10] (read-out: pIC50 (converted)) it was 14.1 µM; in [18], 5.35 µM. Besides, affinity in test [8] was put at a Ki of 77.6 µM.

Take `O=C(NC1CCN(C(c2ccccc2)c2ccccc2)CC1)C1CC2c3ccccc3NC2CN1` (stereo not given): the Activity in test [4] turned out to be 57%; in [19], 89%; in test [13], 73%; in test [14] it was 87%. Moreover, the inhibition in [11] and in [6] was below 10% in each case.

Take `CN(CCOCCN1c2ccccc2Sc2ccccc21)C(CCN)C(=O)NCc1ccccc1` (stereo not given): the inhibition was 96.7% in [15], below 10% in test [6] and 34.9% in test [17]. For the same compound, the IC50 in [5] (read-out: pIC50 (converted)) was 10 µM; in test [16] (read-out: IC50), 3 µM; in [7] it was 0.35 µM; in test [9] (read-out: pIC50 (converted)), 15.8 µM; in test [10] (read-out: pIC50 (converted)), 15.1 µM; in [18], 22.9 µM. The inhibition constant Ki in test [8] was 67.6 µM.

With `CN(CCOCCn1c2ccccc2c2ccccc21)C(CCN)C(=O)NCc1ccccc1Cl` (stereo not given), the inhibition in test [15] is 92.4%; in [12] it was 79%; in test [6] it was below 10%; in [17] it was 30.2%. In addition, the IC50 in test [5] (read-out: pIC50 (converted)) is 12.9 µM; in test [16] (read-out: pIC50 (converted)), 8.32 µM; in [7] it was 0.204 µM; in test [9] (read-out: pIC50 (converted)), 19.5 µM; in test [10] (read-out: pIC50 (converted)) it was 9.33 µM. Besides, in test [8], the Ki was 93.3 µM.

As for `CN(CCOCCN1c2ccccc2Sc2ccccc21)C(CCO)C(=O)NCc1ccc(Cl)cc1` (stereo not given), the values for the Activity in [4], in [13] and in [14] were 55%, 96% and 57%, respectively. Besides, the IC50 is 7.94 µM in test [5] (read-out: pIC50 (converted)), 4.27 µM in test [7] and 20.9 µM in test [10] (read-out: pIC50 (converted)). Further, the figures for the inhibition in [12] and in [6] were 44% and below 10%, respectively.

For `CN(CC/C=C/c1ccccc1-c1ccc(Cl)cc1Cl)C(CCN)C(=O)NCc1ccccc1` (stereo not given), the Activity in test [4] came to 18%. In addition, the IC50 was 6.61 µM in test [5] (read-out: pIC50 (converted)); 1.43 µM in test [7]; 5.5 µM in [9] (read-out: IC50); 7.41 µM in test [10] (read-out: pIC50 (converted)); 5.41 µM in test [18]. In addition, in test [8], the inhibition constant (Ki) was 28.2 µM.

As to `CN(CCC=C(c1ccccc1)c1ccccc1)C(CN)C(=O)NCc1ccccc1Cl` (stereo not given), the IC50 in test [1] came out at 9 µM; in test [2], 13 µM; in [3] it was 6 µM.

As usually defined, the inhibition is the drop in the measured response relative to a control, in per cent. As usually defined, the Ki is a measure of affinity in units of concentration, obtained from inhibition or displacement.
